Measurements as given in patent publication US6676925B1, “Sigma-2 receptors as biomarkers of tumor cell proliferation” (priority 1996, dated 2004).

Experiments:
Sigma-1 binding sites = Sigma-1 binding sites (Cavia porcellus, UniProt Q60492); test: σ1 binding assay, [^3H](+)-pentazocine in guinea pig brain membranes
Description: Test compounds were dissolved in ethanol (7 concentrations ranging from 1-1000 nM) then diluted in buffer for a total incubation volume of 0.5 mL. Assays were terminated by the addition of ice-cold 10 mM Tris HCl, pH 8.0 followed by rapid filtration through Whatman GF/B glass fiber filters (presoaked in 0.5% polyethylenimine) using a Brandel cell harvester (Gaithersburg, Md.). Filters were washed twice with 5 ML of ice cold buffer. Nonspecific binding was determined in the presence of 10 μM (+)-pentazocine. Liquid scintillation counting was carried out in EcoLite (+) (ICN Radiochemicals; Costa Mesa, Calif.) using a Beckman LS 6000IC spectrometer with a counting efficiency of 50%. Typical counts were 70 dpm/μg protein for total binding, 6 dpm/μg protein for nonspecific binding, and 64 dpm/μg protein for specific binding.
(§1) The IC50 values at sigma sites were determined in triplicate from non-linear regression of binding data as analyzed by JMP (SAS Institute; Cary, N.C.), using 5-10 concentrations of each compound. Ki values were calculated using the Cheng-Prusoff equation and represent mean values ±SEM. All assays were done in triplicate unless otherwise noted.

Sigma-2 sites = target: T1, Sigma-2 sites (Rattus norvegicus, UniProt Q5U3Y7); test: σ2 binding assay, [^3H]DTG in rat liver membranes in the presence of 100 nM (+)-pentazocine
T1 sequence (Q5U3Y7 1-176): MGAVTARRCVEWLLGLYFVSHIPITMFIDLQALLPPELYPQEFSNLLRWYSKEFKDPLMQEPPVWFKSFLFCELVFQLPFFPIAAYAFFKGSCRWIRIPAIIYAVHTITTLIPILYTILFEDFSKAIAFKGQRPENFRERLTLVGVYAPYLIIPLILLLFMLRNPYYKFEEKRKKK
Description: Assays were terminated by the addition of ice-cold 10 mM Tris-HCl, pH 8.0 followed by rapid filtration through Whatman GF/B glass fiber filters (presoaked in 0.5% polyethylenimine) using a Brandel cell harvester (Gaithersburg, Md.). Filters were then washed twice with 5 mL of ice cold buffer Nonspecific binding was determined in the presence of 5 μM DTG. Liquid scintillation counting was carried out in EcoLite(+) (ICN Radiochemicals; Costa Mesa, Calif.) using a Beckman LS 6000IC spectrometer with a counting efficiency of 50%. […] Typical counts for guinea pig brain were 16 dpm/μg protein for total binding, 2 dpm/μg protein for nonspecific binding, and 14 dpm/μg protein for specific binding.
as §1

Sigma-1 binding sites, sequence (Q60492 whole entry): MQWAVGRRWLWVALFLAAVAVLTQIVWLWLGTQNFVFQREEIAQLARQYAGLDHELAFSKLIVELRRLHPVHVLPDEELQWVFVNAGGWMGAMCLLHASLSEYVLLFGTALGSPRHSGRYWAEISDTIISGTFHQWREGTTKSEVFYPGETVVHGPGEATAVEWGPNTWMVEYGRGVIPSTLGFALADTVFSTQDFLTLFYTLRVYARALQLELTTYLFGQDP

Row | Structure (SMILES) | Ki (Sigma-1 binding sites) [nM] | Ki (Sigma-2 sites) [nM]
1 | CN1[C@@H]2CC[C@H]1C[C@@H](OC(=O)Nc1ccc(Cl)c(Cl)c1)C2 [Compound 2, (3-endo)-8-Methyl-8-azabicyclo[3.2.1]octyl-3-N-(3′, 4′-dichlorophenyl)-carbamate] | > 1000 | 36.9
2 | COc1ccc(Cl)cc1NC(=O)O[C@H]1C[C@H]2CC[C@@H](C1)N2C [Compound 3, (3-endo)-8-Methyl-8-azabicyclo[3.2.1]octyl-3-N-(2′-methoxy-5′-chloro-phenyl)-carbamate] | > 1000 | 156
3 | O=C(Nc1ccc(Cl)c(Cl)c1)O[C@H]1C[C@H]2CCC[C@@H](C1)N2Cc1ccccc1 [Compound 4, (3-endo)-9-Benzyl-9-azabicyclo[3.3.1]nonanyl-3-N-(3′, 4′-dichlorophenyl)-carbamate] | 33.3 | 91.9
4 | COc1ccc(OC)c(NC(=O)O[C@H]2C[C@H]3CCC[C@@H](C2)N3Cc2ccccc2)c1 [Compound 5, (3-endo)-9-Benzyl-9-azabicyclo[3.3.1]nonanyl-3-N-(2′, 5′-dimethoxyphenyl)-carbamate] | 329 | 28.2
5 | COc1cc(OC)c(NC(=O)O[C@H]2C[C@H]3CCC[C@@H](C2)N3Cc2ccccc2)cc1Cl [Compound 6, (3-endo)-9-Benzyl-9-azabicyclo[3.3.1]nonanyl-3-N-(5′-chloro-2′, 4′-dimethoxyphenyl)carbamate] | 189 | 22.9
6 | COc1ccc(Cl)cc1NC(=O)O[C@H]1C[C@H]2CCC[C@@H](C1)N2Cc1ccccc1 [Compound 7, (3-endo)-9-Benzyl-9-azabicyclo[3.3.1]nonanyl-3-N-(5′-chloro-2′-methoxyphenyl)carbamate] | > 1000 | 63.5
7 | CN1[C@@H]2CCC[C@H]1C[C@@H](OC(=O)Nc1ccc(Cl)c(Cl)c1)C2 [Compound 8, (3-endo)-9-Methyl-9-azabicyclo[3.3.1]nonanyl-3-N-(3′, 4′-dichlorophenyl)-carbamate] | 595 | 50.3
8 | COc1ccc(OC)c(NC(=O)O[C@H]2C[C@H]3CC[C@@H](C2)N3Cc2ccccc2)c1 [Compound 9, (3-endo)-8-Benzyl-8azabicyclo[3.2.1]octyl-3-N-(2′,5′-dimethoxyphenyl)-carbamate] | 72.4 | 22.1
9 | O=C(Nc1ccc(Cl)c(Cl)c1)O[C@H]1C[C@H]2CC[C@@H](C1)N2Cc1ccccc1 [Compound 10, (3-endo)-8-Benzyl-8-azabicyclo[3.2.1]octyl-3-N(3′, 4′-dichlorophenyl)-carbamate] | 716 | 16.2
